# Data reported in patent US7956088B2, “Synthetic lactone formulations and methods of use” (priority 2002, dated 2011).
# “And” between values parts separate entries of the source, which are not always exact repeats. Equal values may be shown once. Read-outs that look alike come from different tables or passages of the source.
# Legend:
# Sarcina lutea = test: Disc zone of inhibition / MIC tests No. 1-3, poured in plate, Mueler Hinton pH 8; format: cell-based; settings: for zone of inhibition at 10 µg/disc: Micrococcus luteus; for zone of inhibition at 10 µg/disc / P (mm), zone of inhibition: pattern disc with 10 μg
# [1] = system: LnCaP human prostate cancer cells; test: In vitro cytotoxicity / anti-proliferative activity; format: cell-based
# Procedure: (§5) Four tumor cell lines, including human prostate cancers PC-4 (androgen-insensitive) and LnCaP (androgen-insensitive) and human cervical cancers CaSKi (human papilloma virus-(HPV) Type-16 positive] and C-33 (HPV-negative), were cultured in RPMI-10% bovine serum, glutamine and antibiotics at 5% CO2 an 37 degrees Celsius.
# (§6) The lethal dosages for each cell line is listed below:
# Staphylococcus aureus = test: Microbiological sensitivity assay; format: cell-based
# From the text: Culture Medium for Staphylococo aureus (USP 23 <81>) • Peptone . . . 1.0 g • Digestive pancreatic Caseine . . . 4.0 g • Yeast Extract . . . 3.0 g • Beef Extract . . . 1.5 g • Dextrose . . . 1.0 g • Agar . . . 15.0 g • Water to make about . . . 1.0 Lit • pH after sterilized 6.6±0.1
# [2] = Rats infected in surgery, then treated; format: in vivo
# From the text: The high activity of these lactones against Escherichia coli, Klebsiela pneumoniae, Pseudomona aeruginosa, Staphylococo aureus, among others, and its low molecular weight, are advantageous.
# Escherichia coli = test: Microbiological sensitivity assay; format: cell-based
# From the text: (§1) Culture Medium for E. coli and k. neumoniae (according to USP 23 <81>) • Peptone . . . 5.0 g • Yeast Extract . . . 1.5 g • Beef Extract . . . 1.5 g • Sodium Chloride . . . 3.5 g • Dextrose . . . 1.0 g • Dibasic Potassium Phosphate . . . 3.68 g • Monobasic Potassium Phosphate . . . 1.32 g • Water To make about . . . 1.0 L • pH after sterilized 7.0±0.05 Antibacterial Activity Assays (Minimum Inhibitory Concentration, MIC)
# Klebsiela pneumoniae = test: Microbiological sensitivity assay; format: cell-based
# From the text: as §1
# [3] = system: CaSKi (HPV Type-16 positive) human cervical cancer cells; test: In vitro cytotoxicity / anti-proliferative activity; format: cell-based
# Procedure: as §5, §6
# [4] = system: PC-4, LnCaP, CaSKi and C-33 tumor cell lines; settings: curves of 1000 μg LMSV-6 and 1000 μM tamoxifen; cell line not stated
# Procedure: Four tumor cell lines, including human prostate cancers PC-4 ([…]) and LnCaP ([…]) and human cervical cancers CaSKi (human papilloma virus-(HPV) Type-16 positive] and C-33 (HPV-negative), were cultured in RPMI-10% bovine serum, glutamine and antibiotics at 5% CO2 an 37 degrees Celsius.
# [5] = Study of adverse reactions in healthy volunteers; format: in vivo
# From the text: Nineteen healthy volunteers participated in the study. The age of the participants was between 21 and 40 years with an average of 30.5±7.2 years. The weight was between 150 and 190 pounds with a median of 163.2±14.3 pounds and the height was 1.8 to 2.1 meters with an average of 1.9±0.1 meters. The subjects were selected at random in agreement with the national and international criteria and norms established for investigations with human beings.
# The state of health of the participants was established using several clinical evaluations, laboratory tests, electrocardiographs and thoracic radiographs. The functionality of the liver and the renal systems was verified by chemical-enzymatic studies. Likewise, for each participant we carried out tests of blood chemistry, pathology and urinalysis. For the females, the absence of pregnancy and/or lactation was verified by means of laboratory tests and gynecological evaluation.
# Participants were divided into three groups selected at random (n=6): • Group I (placebo) received 2.0 ml of saline solution (ClNa^+, 0.9%), Group II, received 60 mg of LMSV-6 intramuscularly, and Group III (n=7) received 100 mg of LMSV-6 intramuscularly. The participants underwent several tests used to establish the basal values of the objective parameters of the analysis, which included:
# Lab Studies: hemogram, blood chemistry, urinalysis and coproanalysis
# Cardiovascular Function: arterial tension (TA), cardiac rhythm (RC), cardiac frequency (FC) and radial pulse (PR)
# Pulmonary Functions: pulmonary respiration (VP) and respiratory frequency (FR)
# Renal Function: urinary volume and urinary frequency (FU)
# Sensory System: hearing, vision, smell, taste and sensory reflexes
# Skin and/or Teguments: sensitivity, skin texture, temperature and musculo-skeletal tone
# Neurovegetative Functions: salivary gland and sweat gland activities, gastrointestinal […] and visceral reflexes
# Hypersensitivity Reactions: local sensitivity and systemic sensitivity.
# [6] = system: C-33 (HPV-negative) human cervical cancer cells; test: In vitro cytotoxicity / anti-proliferative activity; format: cell-based
# Procedure: as §5, §6
# [7] = system: Salmonella typhimurium TA100; test: Ames test; format: cell-based; settings: ≦100 μg/mL
# Procedure: (§2) This study was performed in accordance with the norms of USC 79/831, which establishes the guidelines for toxicological analytical methods.
# (§3) The Ames test detects drug-induced ‘reverting mutations’ in previously mutated strains of Salmonella typhimurium, all of which have the rfa mutation that makes their cell membranes permeable to chemical agents. […] The presence of these mutations incapacitates the growth of these cells in a histidine-poor culture medium.
# (§4) A drug is said to be mutagenic if it causes a greater than 2-fold increase in the number of colonies growing in histidine-poor medium.
# [8] = system: Salmonella typhimurium TA98; test: Ames test; format: cell-based; settings: 1 or 10 μg/mL
# Procedure: as §2, §3, §4
# [9] = system: PC-4 human prostate cancer cells; test: In vitro cytotoxicity / anti-proliferative activity; format: cell-based
# Procedure: as §5, §6
# Pseudomona aeruginosa = test: Microbiological sensitivity assay; format: cell-based
# From the text: Culture Medium for Pseudomona aeruginosa (USP 23 <81>) • Pancreatic digestive Caseine . . . 17.0 g • soy Papaine digestive . . . 3.0 g • Sodium Chloride . . . 5.0 g • Dibasic Potassium Phosphate . . . 2.5 g • Dextrose . . . 2.5 g • Agar . . . 20.0 g • Water to make about . . . 1.0 Lit • pH after sterilized 7.2±0.1
# [10] = anti-proliferative activity after 72 hours
compound,measurement,setting,value
"CO/N=C(\C(=O)N[C@@H]1C(=O)N2C(C(=O)O)=C(CSc3nc(=O)c(=O)[nH]n3C)CS[C@H]12)c1csc(N)n1 [Ceftriaxone, reference compound]",zone of inhibition at 10 µg/disc,"Sarcina lutea; Test No 2, read-out: P (mm), zone of inhibition",18 mm
same,zone of inhibition at 10 µg/disc,"Sarcina lutea; Test No 2, unlabelled sum line, read-out: P (mm), total of the three zones",49 mm
same,zone of inhibition at 10 µg/disc,"Sarcina lutea; Test No. 1, read-out: P (mm), zone of inhibition",12 mm
same,zone of inhibition at 10 µg/disc,"Sarcina lutea; Test No. 1, unlabelled sum line, read-out: P (mm), total of the three zones",43 mm
same,zone of inhibition at 10 µg/disc,"Sarcina lutea; Test No. 3, read-out: P (mm), zone of inhibition",18 mm
same,zone of inhibition at 10 µg/disc,"Sarcina lutea; Test No. 3, unlabelled sum line, read-out: P (mm), total of the three zones",49 mm
same,"P (mm), zone of inhibition",Sarcina lutea; Test No 2,16 mm and 15 mm
same,"P (mm), zone of inhibition",Sarcina lutea; Test No. 1,15 mm and 16 mm
same,"P (mm), zone of inhibition",Sarcina lutea; Test No. 3,16 mm and 15 mm
"C=C1CCOC1=O [LMSV-6, 4,5-dihydro-3-methylene-2[3H]furanone]",LD50,"[1]; LNCaP, anti-proliferative activity after 72 hours",26.5 µM
same,"LD50, cytotoxicity","[1]; LnCaP, after 4 hours","> 1,982 μM"
same,Activity against Staphylococcus aureus,Staphylococcus aureus,high activity
same,Treatment of developed infection,[2],successfully treated
same,Activity against Escherichia coli,Escherichia coli,high activity
same,Activity against Klebsiela pneumoniae,Klebsiela pneumoniae,high activity
same,"LD50, cytotoxicity",[3]; after 4 hours,"> 1,982 μM"
same,LD50,[3]; [10],64.3 µM
same,LD50 from curves of percent inhibition of proliferation,[4],528 µM
same,Respiratory frequency (FR),[5]; during the entire test,18 to 20 respirations per minute
same,Adverse reactions,"[5]; human, in vivo","no evidence, sign or symptom of adverse reactions"
same,"Allergic effects (reactivity), local and systemic","[5]; human, in vivo",not any manifestation of allergic reactions
same,Cutaneous sensitivity and temperature,"[5]; human, in vivo",did not provoke any change
same,Electrocardiograph pattern,"[5]; human, in vivo",no variation
same,"Mental state and sensory acuteness (auditory, visual, olfactory, taste)","[5]; human, in vivo",did not provoke any alteration
same,Respiratory mechanics and dynamics,"[5]; human, in vivo",did not alter
same,Tolerance of maximum dosage tested,"[5]; human, in vivo",well tolerated
same,"LD50, cytotoxicity",[6]; after 4 hours,538 µM
same,LD50,[6]; [10],7.10 µM
same,Colony count in histidine-poor medium,[7],did not increase normal colony count
same,Colony count in histidine-poor medium,[8],did not increase normal colony count
same,"S (mm), zone of inhibition","Sarcina lutea; Test No 2, 16.0 microliters/100 mL and 10 μL applied to sensibility disc",20 mm and 23 mm and 19 mm
same,"S (mm), total of the three zones","Sarcina lutea; Test No 2, 16.0 microliters/100 mL, 10 μL applied, unlabelled sum line",62 mm
same,"S (mm), zone of inhibition","Sarcina lutea; Test No. 1, 5 pure μL applied to sensibility disc",40 mm and 44 mm and 43 mm
same,"S (mm), total of the three zones","Sarcina lutea; Test No. 1, 5 pure μL, unlabelled sum line",127 mm
same,Sample zone of inhibition relative to pattern,"Sarcina lutea; Test No. 1, versus ceftriaxone 10 μg disc",three times bigger
same,"S (mm), zone of inhibition","Sarcina lutea; Test No. 3, 10 microliters/10 mL and 20 μL applied to sensibility disc",3 mm and 4 mm
same,"S (mm), total of the three zones","Sarcina lutea; Test No. 3, 10 microliters/10 mL, 20 μL applied, unlabelled sum line",10 mm
same,Zone of Inhibition,Sarcina lutea; applied volume to disc 0.2 μL (MIC),3.3 mm
same,Zone of Inhibition,Sarcina lutea; applied volume to disc 1.6 M,20.0 mm
same,Zone of Inhibition,Sarcina lutea; applied volume to disc 5 μL,42.0 mm
same,Minimum Inhibitory Concentration (MIC),Sarcina lutea; volume applied to disc,~0.2 µL
same,"LD50, cytotoxicity",[9]; after 4 hours,"> 1,982 μM"
same,LD50,[9]; [10],59.2 µM
same,Activity against Pseudomona aeruginosa,Pseudomona aeruginosa,high activity
CC/C(=C(\c1ccccc1)c1ccc(OCCN(C)C)cc1)c1ccccc1 [Tamoxifen],LD50 from curves of percent inhibition of proliferation,[4],345 µM
"CN(Cc1cnc2nc(N)nc(N)c2n1)c1ccc(C(=O)N[C@@H](CCC(=O)O)C(=O)O)cc1 [methotrexate, reference compound]",Anti-proliferative activity against CaSKi,[3],lacked activity
